In PubChem BioAssay AID330 (DTP/NCI, 2004):
“And” between values parts separate entries of the source, which are not always exact repeats. Equal values may be shown once. Inconclusive results and toxic doses are left out. Rule for the calls: active = survival T/C of 150% or more; inactive = T/C below 125% in these data.

Test system: P388 leukemia ip, CD2F1 mice, survival T/C
Assay: NCI In Vivo Anticancer Drug Screen. Data for tumor model P388 Leukemia (intraperitoneal) in CD2F1 (CDF1) mice
Settings: endpoint: median survival time, higher = longer survival
Summary of the method: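 Mice carrying the transplanted tumor received test compound or vehicle. Survival was recorded in each group, and the value is the treated-group measurement divided by that of the vehicle-treated control group.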

[1] = dose: 50.0 mg/kg/injection, schedule: Q01DX009 (ip), vehicle: saline with Tween-80
[2] = dose: 100.0 mg/kg/injection, schedule: Q01DX009 (ip), vehicle: saline with Tween-80
[3] = dose: 200.0 mg/kg/injection, schedule: Q01DX009 (ip), vehicle: saline with Tween-80
[4] = dose: 400.0 mg/kg/injection, schedule: Q01DX009 (ip), vehicle: saline with Tween-80

Measured: T/C

COc1c2c(c(OC)c3c1C(=O)c1ccccc1C3O)CC=CC2 (stereo not given)
inactive: dose: 25.0 mg/kg/injection, schedule: Q01DX009 (ip), vehicle: other 94 % of control | dose: 50.0 mg/kg/injection, schedule: Q01DX009 (ip), vehicle: other 91 % of control | dose: 100.0 mg/kg/injection, schedule: Q01DX009 (ip), vehicle: other 91 % of control | dose: 200.0 mg/kg/injection, schedule: Q01DX009 (ip), vehicle: other 95 % of control | dose: 400.0 mg/kg/injection, schedule: Q01DX009 (ip), vehicle: other 100 % of control

O=C(N/N=C/c1cc(Br)ccc1[O-])c1cccnc1.O=C(N/N=C/c1cc(Br)ccc1[O-])c1cccnc1.[Zn+2]
inactive: dose: 100.0 mg/kg/injection, schedule: Q01DX001 (ip), vehicle: Klucel (hydroxypropylcellulose) (HPC) 98 % of control | dose: 200.0 mg/kg/injection, schedule: Q01DX001 (ip), vehicle: Klucel (hydroxypropylcellulose) (HPC) 93 % of control | dose: 400.0 mg/kg/injection, schedule: Q01DX001 (ip), vehicle: Klucel (hydroxypropylcellulose) (HPC) 93 % of control

N#C/C(=C\c1ccccc1)c1ccc(Cl)cc1
inactive: [1] 105 % of control and 97 % of control | [2] 106 % of control and 91 % of control | [3] 113 % of control and 96 % of control | [4] 103 % of control and 97 % of control

CC1(C)COC(c2ccccc2-c2ccccc2C2OCC(C)(C)CO2)OC1
inactive: dose: 100.0 mg/kg/injection, schedule: Q04DX003 (ip), vehicle: saline 100 % of control | dose: 200.0 mg/kg/injection, schedule: Q04DX003 (ip), vehicle: saline 99 % of control | dose: 400.0 mg/kg/injection, schedule: Q04DX003 (ip), vehicle: saline 104 % of control

BrC1/C=C\CC(Br)/C=C\C1 (stereo not given)
inactive: [1] 110 % of control | [2] 117 % of control | [3] 115 % of control

COc1ccc(NC(=O)CCC(=O)Oc2ccccc2)cc1
inactive: [2] 100 % of control | [4] 94 % of control
